In ChEMBL document CHEMBL1122549, “Opioid agonists and antagonists. 6,6-Hydrazi and 6-oximino derivatives of 14-hydroxydihydromorphinones” (1984):

Key:
Format in all cases: functional
Mus musculus [1] = test: Compound was evaluated in vivo for the antagonist activity by the tail flick assay using morphine as the agonist in mice.
Mus musculus [2] = test: Compound was evaluated in vivo for the antagonist activity by the tail flick assay using morphine as the agonist in mice
Mus musculus [3] = test: Compound was evaluated in vivo for the agonist activity after subcutaneous administration as aqueous solutions of HCl salt in mice using Hot plate assay; conditions: sc
Mus musculus [4] = test: Compound was evaluated in vivo for the agonist activity after subcutaneous administration as aqueous solutions of HCl salt in mice using Nilsen assay.; conditions: sc
Mus musculus [5] = test: Compound was evaluated in vivo for the agonist activity after subcutaneous administration as aqueous solutions of HCl salt in mice using Tail flick assay; conditions: sc
Mus musculus [6] = test: Compound was evaluated in vivo for the agonist activity after subcutaneous administration as aqueous solutions of HCl salt in mice using Phenylquinone (PPQ) writhing assay; conditions: sc
Mus musculus [7] = test: Compound was evaluated in vivo for the agonist activity after subcutaneous administration as aqueous solutions of HCl salt in mice using Nilsen assay; conditions: sc

Row | Compound | ED50 (Mus musculus [1]) [mg/kg] | ED50 (Mus musculus [2]) [mg/kg] | ED50 (Mus musculus [3]) [mg/kg] | ED50 (Mus musculus [5]) [mg/kg] | ED50 (Mus musculus [6]) [mg/kg] | also measured
1 | Oc1ccc2c3c1OC1C4(CCC5(O)C(C2)N(CC2CC2)CCC315)NN4 (centres undefined) | 0.02 | – | – | – | – | –
2 | C=CCN1CCC23c4c5ccc(O)c4OC2/C(=N/OC)CCC3(O)C1C5 (centres undefined) | – | 1.9 | – | – | – | –
3 | CN1CC[C@]23c4c5ccc(O)c4O[C@H]2[C@@H](O)CC[C@H]3[C@H]1C5.Cl | – | – | 0.19 | – | – | ED50 (Mus musculus [4]): 0.2 mg/kg
4 | CO/N=C1\CCC2(O)C3Cc4ccc(O)c5c4C2(CCN3C)C1O5 (centres undefined) | – | – | 0.22 | 0.08 | 0.02 | –
5 | CO/N=C1\CCC2(O)C3Cc4ccc(O)c5c4C2(CCN3CC2CC2)C1O5 (centres undefined) | – | 0.08 | – | – | – | –
6 | O/N=C1\CCC2(O)C3Cc4ccc(O)c5c4C2(CCN3CC2CC2)C1O5 (centres undefined) | 0.08 | – | – | – | – | –
7 | C=CCN1CCC23c4c5ccc(O)c4OC2/C(=N/O)CCC3(O)C1C5 (centres undefined) | – | 0.06 | – | – | – | –
8 | CN1CCC23c4c5ccc(O)c4OC2/C(=N/O)CCC3(O)C1C5 (centres undefined) | – | – | 0.56 | 2.2 | 0.1 | ED50 (Mus musculus [4]): 0.45 mg/kg
9 | CN1CCC23c4c5ccc(O)c4OC2C2(CCC3(O)C1C5)NN2 (centres undefined) | – | – | 0.81 | 0.7 | 0.05 | ED50 (Mus musculus [7]): 2 mg/kg
10 | Cl.O=C1CC[C@@]2(O)[C@H]3Cc4ccc(O)c5c4[C@@]2(CCN3CC2CC2)[C@H]1O5 [NALTREXONE HYDROCHLORIDE] | 0.007 | – | – | – | – | –
